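Cultured in 96-well plates, cells were exposed to test compound for 48 hours across five concentrations. Here, GI50 denotes the concentration required for 50% inhibition of growth.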 Active and inactive are the calls of the source. Cut-off read from the data, not from the text of the source: active = GI50 up to about 1.1 µM and inactive = higher.
How the values were obtained:
Assay in all cases: NCI anticancer screen, dose series, 48 h
[1] = tested on: IGROV-1
[2] = tested on: DLD-1
[3] = tested on: K562
[4] = tested on: Malme-3M
[5] = tested on: M14
[6] = tested on: HCT-116
[7] = tested on: RPMI-8226
[8] = tested on: OVCAR-8
[9] = tested on: OVCAR-5
[10] = tested on: U-251
[11] = tested on: A549
[12] = tested on: NCI-H460
[13] = tested on: CAKI-1
[14] = tested on: EKVX
[15] = tested on: MCF7
[16] = tested on: PC-3
[17] = tested on: MDA-N
[18] = tested on: MDA-MB-435
[19] = tested on: Hs-578T
[20] = tested on: T47D

| SMILES | GI50 [1] | GI50 [2] | GI50 [3] | GI50 [4] | GI50 [5] | GI50 [6] | GI50 [7] | GI50 [8] | GI50 [9] | GI50 [10] | GI50 [11] | GI50 [12] | GI50 [13] | GI50 [14] | GI50 [15] | GI50 [16] | GI50 [17] | GI50 [18] | GI50 [19] | GI50 [20] |
| --- | --- | --- | --- | --- | --- | --- | --- | --- | --- | --- | --- | --- | --- | --- | --- | --- | --- | --- | --- | --- |
| CN(O)C(=O)c1ccccc1 | > 100 µM (inactive) | > 100 µM (inactive) | > 100 µM (inactive) | > 100 µM (inactive) | > 100 µM (inactive) | > 100 µM (inactive) | > 100 µM (inactive) | > 100 µM (inactive) | > 100 µM (inactive) | > 100 µM (inactive) | > 100 µM (inactive) | > 100 µM (inactive) | > 100 µM (inactive) | – | – | – | – | – | – | – |
| Cc1cc(C)c(S(=O)(=O)N(CCCN)OCCCN)c(C)c1 | > 100 µM (inactive) | – | > 100 µM (inactive) | > 100 µM (inactive) | 31.4 µM (inactive) | > 100 µM (inactive) | > 100 µM (inactive) | > 100 µM (inactive) | 0.881 µM (active) | > 100 µM (inactive) | > 100 µM (inactive) | > 100 µM (inactive) | > 100 µM (inactive) | > 100 µM (inactive) | > 100 µM (inactive) | > 100 µM (inactive) | > 100 µM (inactive) | > 100 µM (inactive) | > 100 µM (inactive) | > 100 µM (inactive) |
| COc1ccc(-c2onc(-c3ccc([N+](=O)[O-])cc3)c2C2=NCCCN2)cc1 | > 100 µM (inactive) | > 100 µM (inactive) | 70.3 µM (inactive) | > 100 µM (inactive) | 38.8 µM (inactive) | 38.9 µM (inactive) | > 100 µM (inactive) | 81.1 µM (inactive) | > 100 µM (inactive) | > 100 µM (inactive) | > 100 µM (inactive) | 51.8 µM (inactive) | > 100 µM (inactive) | > 100 µM (inactive) | – | – | – | – | – | – |
| O=C(O)Cc1cc(=O)[nH]c2c1/C(=N/O)CCC2 | > 100 µM (inactive) | > 100 µM (inactive) | > 100 µM (inactive) | > 100 µM (inactive) | > 100 µM (inactive) | – | > 100 µM (inactive) | > 100 µM (inactive) | > 100 µM (inactive) | > 100 µM (inactive) | > 100 µM (inactive) | > 100 µM (inactive) | – | > 100 µM (inactive) | – | – | – | – | – | – |
| Cc1cc2nc3c(=O)n(C)c(=O)nc-3n(-c3ccc(Cl)cc3)c2cc1C | 14.6 µM (inactive) | 14.5 µM (inactive) | 12.8 µM (inactive) | 10 µM (inactive) | 3.29 µM (inactive) | 11.9 µM (inactive) | 6.37 µM (inactive) | 13.1 µM (inactive) | 18.5 µM (inactive) | 9.66 µM (inactive) | 3.52 µM (inactive) | 3.3 µM (inactive) | 16.4 µM (inactive) | 20.1 µM (inactive) | – | – | – | – | – | – |
| CO/N=C\c1cc(O)c(O)c(/C=N/OC)c1 | 27.4 µM (inactive) | – | 29.8 µM (inactive) | 52.7 µM (inactive) | 33.3 µM (inactive) | 23.8 µM (inactive) | 12.5 µM (inactive) | 23.4 µM (inactive) | > 100 µM (inactive) | 34.1 µM (inactive) | 26 µM (inactive) | 23.1 µM (inactive) | 23.3 µM (inactive) | 47.4 µM (inactive) | 29.3 µM (inactive) | 33.7 µM (inactive) | 64.4 µM (inactive) | 50.5 µM (inactive) | 12.6 µM (inactive) | 26.1 µM (inactive) |
| CCOC(=O)c1sc(Nc2cc(Cl)ccc2Cl)nc1C | 73.1 µM (inactive) | 44.7 µM (inactive) | 42.9 µM (inactive) | > 100 µM (inactive) | – | > 100 µM (inactive) | 53.2 µM (inactive) | 96.4 µM (inactive) | 37.3 µM (inactive) | > 100 µM (inactive) | 72.3 µM (inactive) | > 100 µM (inactive) | – | > 100 µM (inactive) | – | – | – | – | – | – |
| C=C1C2Oc3ccccc3C1N(c1ccccc1)O2 (centres undefined) | 34.4 µM (inactive) | 26.7 µM (inactive) | 27.4 µM (inactive) | 46.7 µM (inactive) | 22.1 µM (inactive) | 20.3 µM (inactive) | 23.7 µM (inactive) | 17 µM (inactive) | 80 µM (inactive) | 27.2 µM (inactive) | 30.4 µM (inactive) | 20.8 µM (inactive) | 40.8 µM (inactive) | 42.9 µM (inactive) | – | – | – | – | – | – |
| Cc1ccc(C)c(N2C(=O)C(=O)C(c3nc4ccccc4o3)/C(=N\NC(=O)c3ccccc3O)C2=O)c1 (centres undefined) | 6.52 µM (inactive) | 28.9 µM (inactive) | 16.4 µM (inactive) | 66.1 µM (inactive) | 32.3 µM (inactive) | 17.5 µM (inactive) | 37.6 µM (inactive) | 19.8 µM (inactive) | 58.3 µM (inactive) | 24.4 µM (inactive) | 13.6 µM (inactive) | – | 3.75 µM (inactive) | 22.8 µM (inactive) | – | – | – | – | – | – |
| Cc1cc(N(CCC#N)CCC#N)ccc1/C=C1/N=C(c2ccccc2)N(N)C1=O | 79.8 µM (inactive) | > 100 µM (inactive) | 53.5 µM (inactive) | > 100 µM (inactive) | > 100 µM (inactive) | > 100 µM (inactive) | > 100 µM (inactive) | > 100 µM (inactive) | > 100 µM (inactive) | 63.7 µM (inactive) | 84.1 µM (inactive) | – | 98.2 µM (inactive) | > 100 µM (inactive) | – | – | – | – | – | – |
| O=C(O)/C(Cl)=C(\Cl)C(=O)c1ccccc1 | > 100 µM (inactive) | > 100 µM (inactive) | > 100 µM (inactive) | > 100 µM (inactive) | > 100 µM (inactive) | > 100 µM (inactive) | – | > 100 µM (inactive) | > 100 µM (inactive) | > 100 µM (inactive) | > 100 µM (inactive) | > 100 µM (inactive) | > 100 µM (inactive) | > 100 µM (inactive) | – | – | – | – | – | – |
| CC1(C)OC2C(CO)OC(n3ccc(N)nc3=O)C2O1 (centres undefined) | > 100 µM (inactive) | – | > 100 µM (inactive) | > 100 µM (inactive) | > 100 µM (inactive) | > 100 µM (inactive) | > 100 µM (inactive) | > 100 µM (inactive) | > 100 µM (inactive) | > 100 µM (inactive) | > 100 µM (inactive) | > 100 µM (inactive) | > 100 µM (inactive) | > 100 µM (inactive) | > 100 µM (inactive) | > 100 µM (inactive) | > 100 µM (inactive) | > 100 µM (inactive) | > 100 µM (inactive) | > 100 µM (inactive) |
| CC(=O)NCCC1CNc2ccccc21 (centres undefined) | > 100 µM (inactive) | – | > 100 µM (inactive) | > 100 µM (inactive) | > 100 µM (inactive) | > 100 µM (inactive) | > 100 µM (inactive) | > 100 µM (inactive) | > 100 µM (inactive) | > 100 µM (inactive) | > 100 µM (inactive) | > 100 µM (inactive) | > 100 µM (inactive) | > 100 µM (inactive) | > 100 µM (inactive) | > 100 µM (inactive) | > 100 µM (inactive) | > 100 µM (inactive) | > 100 µM (inactive) | > 100 µM (inactive) |
| Cc1ccc([N+](=O)[O-])cc1NC(=O)C(=O)Cc1occc(=O)c1O | > 100 µM (inactive) | > 100 µM (inactive) | > 100 µM (inactive) | – | – | – | > 100 µM (inactive) | > 100 µM (inactive) | > 100 µM (inactive) | > 100 µM (inactive) | > 100 µM (inactive) | > 100 µM (inactive) | > 100 µM (inactive) | > 100 µM (inactive) | – | – | – | – | – | – |
| O=C1C(=O)C(CCCO)(CCCO)CCCCCCCCC1(CCCO)CCCO | 41.3 µM (inactive) | – | 23.7 µM (inactive) | > 100 µM (inactive) | 37.4 µM (inactive) | 32 µM (inactive) | < 0.01 µM (active) | > 100 µM (inactive) | > 100 µM (inactive) | 66.5 µM (inactive) | 45.8 µM (inactive) | > 100 µM (inactive) | > 100 µM (inactive) | > 100 µM (inactive) | 55.1 µM (inactive) | 55.3 µM (inactive) | 86.9 µM (inactive) | 61.2 µM (inactive) | 57.7 µM (inactive) | 87.7 µM (inactive) |
| CN(C)CCCCN1c2ccccc2Sc2ccc(C(=O)c3ccccc3)cc21 | 2.9 µM (inactive) | – | 1.57 µM (inactive) | 1.72 µM (inactive) | 1.67 µM (inactive) | 2.18 µM (inactive) | 2.24 µM (inactive) | 3.33 µM (inactive) | 5.64 µM (inactive) | 2.41 µM (inactive) | 3.47 µM (inactive) | 2.24 µM (inactive) | 2.19 µM (inactive) | 6.65 µM (inactive) | 1.93 µM (inactive) | 2.32 µM (inactive) | 2.65 µM (inactive) | 1.9 µM (inactive) | 2.22 µM (inactive) | 3.59 µM (inactive) |
| Clc1ccc(C[P+](c2ccccc2)(c2ccccc2)c2ccccc2)cc1Cl | 2.51 µM (inactive) | 9.2 µM (inactive) | 4.31 µM (inactive) | 2.53 µM (inactive) | 2.6 µM (inactive) | 1.93 µM (inactive) | – | 3.05 µM (inactive) | 5.27 µM (inactive) | 1.63 µM (inactive) | 4.49 µM (inactive) | 2.34 µM (inactive) | 2.57 µM (inactive) | – | – | – | – | – | – | – |
| CCC(=O)NCCc1c2c3c(ccnc3c3ncsc13)-c1ccccc1N2 [KUANONIAMINE C] | 2.81 µM (inactive) | – | 1.53 µM (inactive) | 2.62 µM (inactive) | 2.73 µM (inactive) | 0.582 µM (active) | 0.401 µM (active) | 3.28 µM (inactive) | 8.17 µM (inactive) | 1.41 µM (inactive) | 0.771 µM (active) | 1.16 µM (inactive) | 5.74 µM (inactive) | 5.22 µM (inactive) | 0.0223 µM (active) | 1.41 µM (inactive) | 0.324 µM (active) | 2.26 µM (inactive) | 0.368 µM (active) | 6.75 µM (inactive) |
